Experimental data reported in US20070078096A1, “Buffered drug formulations for transdermal electrotransport delivery” (priority 1997, published 2007).
Converted amounts (≈) assume the structure as drawn. Read-outs that look alike come from different tables or passages of the source. Residues, ends and D or L forms follow the SMILES beside them.

Experiments:
[1] = pKa, pI and charge distribution of buffers; details: for % salt: fraction of dipeptide carrying a net charge in aqueous solution at pH equal to pI
Text: At the pI, three species coexist.
In an electric field these negative species move in the opposite direction of their positive associated counterions.
Choice of the dipeptide buffer will be on a case-by-case basis depending on the drug compound and the desired level of pH control and conductivity of the formulation.

[2] = Solubility of dipeptides at their pI; type: physicochemical
Text: (§1) Table 1 lists conductivities and solubilities of selected dipeptides useful in the present invention, at their pI.

[3] = Conductivity of dipeptides at their pI; type: physicochemical
Text: as §1

[4] = In vivo iontophoresis, pH control of anodic and cathodic buffer gels (Example 2); set-up: species or system hairless guinea pigs; Ionic strength (approx.): unit not given here; details: for Anodic pH after 5 h electrotransport / Cathodic pH after 5 h electrotransport: 0.1 mA/cm^2; for pH control of a cathodic electrotransport formulation: for at least 5 hours; for pH control of a cathodic electrotransport formulation / pH control of an anodic electrotransport formulation: dipeptides at their pI
Experimental: In vivo iontophoresis experiments were performed using custom built electrotransport systems. […] This formulation was separated from the anode electrode by a Sybron ion exchange membrane. […] The cathode-compartment comprised a skin-contacting gel containing the aqueous solution of the buffering agent at the indicated concentration and 3% HEC. This formulation was separated from the cathode electrode by a Nafion ion exchange membrane. […] The electrodes were connected to a DC power source which supplied a constant level of electric current of 0.1 mA/cm^2. Experiments were performed in vivo in hairless guinea pigs. Three animals were used for each condition studied. The electrotransport systems were applied to and removed from the flank of the animals. The two reservoirs were generally spaced about 5 cm apart. The application site was wiped with water prior to system application. pH of the gels was measured prior to application and after removal of the systems using a HORIBA compact pH […]).

[5] = pH stability of formulations with TMAB or SMS during electrotransport (Example 4); type: in vivo, hairless guinea pigs
Text: The effect of the zwitterionic buffer Gly-His and His-Glu on pH stability of formulations containing small molecular weight drug-like compounds during electrotransport to hairless guinea pigs was studied. Trimethylammonium bromide (TMAB) was used as the cationic model drug and sodium methanesulfate (SMS) was used as the model anionic drug.
The electrodes were connected to a DC power source which supplied a constant level of electric current of 0.100 mA/cm^2. The anodic electrode assembly comprised a skin-contacting gel containing the aqueous solution of His-Glu 66 mM or Gly-His 45 mM and TMAB at 50 mM and 3% HEC. This formulation was separated from the silver anode by a Sybron ion exchange membrane. A gel containing 0.15 M sodium chloride (which acted as a chloride source) was placed between the silver anode and the ion exchange membrane. The cathodic electrode assembly comprised a skin-contacting gel containing the aqueous solution of His-Glu 66 mM or Gly-His 45 mM and SMS 50 mM and 3% HEC. The cathodic gel reservoir was separated from the silver chloride cathode by a Nafion ion exchange membrane. A gel containing 0.1 5M sodium chloride was placed between the cathode and the ion exchange membrane. The ionic strength of the skin-contacting gels was 60 mM.
Experiments were performed in vivo in hairless guinea pigs. Two animals were used for each condition studied. The electrotransport systems were applied to and removed from the backs of the animals. The two reservoirs were generally spaced about 5 cm apart. The application site was wiped with 70% isopropyl alcohol wipes prior to system application. Donor reservoir gel pH was measured prior to application and after removal of the systems using a HORIBA compact pH meter (Cardy).

[6] = cathodic gel, prior to application

## NCCCC[C@H](NC(=O)[C@@H](N)CCC(=O)O)C(=O)O [Glu-Lys] (H-Glu-Lys-OH)
[1]; Table 1
  pI: 6.00
[1]; Table 2
  pI: 6.00
[1]
  % salt: 2%
[2]
  Solubility: 1000 mM (≈ 275 mg/mL)
[3]
  Conductivity at 10^−2 Molar: 6 μS/cm

## C[C@H](NC(=O)[C@@H](N)Cc1cnc[nH]1)C(=O)O [His-Ala] (H-His-Ala-OH)
[1]
  pka A: 2.48
  % salt: 22%
[1]; Table 1
  pI: 6.95
[1]; Table 2
  pI: 6.95
[2]
  Solubility: 500 mM (≈ 113 mg/mL)
[3]
  Conductivity at 10^−2 Molar: 60 μS/cm

## N[C@@H](Cc1cnc[nH]1)C(=O)N[C@@H](CC(=O)O)C(=O)O [His-Asp] (H-His-Asp-OH)
[1]; Table 1
  pI: 5.22
[1]; Table 2
  pI: 5.22
[1]
  % salt: 11%
[2]
  Solubility: 50 mM (≈ 13.5 mg/mL)
[3]
  Conductivity at 10^−2 Molar: 28 μS/cm

## N[C@@H](Cc1cnc[nH]1)C(=O)N[C@@H](CCC(=O)O)C(=O)O [His-Glu] (H-His-Glu-OH)
[1]
  pI: 5.2
  % salt: 15%
[1]; Table 1
  pI: 5.20
[1]; Table 2
  pI: 5.20
[1]; at pI
  species presenting a net charge (salt form) at the pI: about 15%
[2]
  Solubility: 400 mM (≈ 114 mg/mL)
[4]; Anode, listed as His-Glu 100 mM
  pH after 24 h electrotransport: 5.5
[4]; Anode, listed as His-Glu 250 mM
  pH after 24 h electrotransport: 5.4
[4]; Cathode, listed as His-Glu 100 mM
  pH after 24 h electrotransport: 5.4
[4]; Cathode, listed as His-Glu 250 mM
  pH after 24 h electrotransport: 5.2
[4]; Table 3, anodic buffer gel, listed as His-Glu 100 mM
  Ionic strength (approx.): ~0.015
[4]; Table 3, anodic buffer gel, listed as His-Glu 250 mM
  Ionic strength (approx.): ~0.037
[4]; Table 4, cathodic buffer gel, listed as His-Glu 100 mM
  Ionic strength (approx.): ~0.015
[4]; Table 4, cathodic buffer gel, listed as His-Glu 250 mM
  Ionic strength (approx.): ~0.037
[4]; Table 5, Anode, listed as His-Glu 100 mM
  Initial pH: 5.1
[4]; Table 5, Anode, listed as His-Glu 250 mM
  Initial pH: 5.2
[4]; Table 5, Cathode
  Initial pH: 5.3
[4]; anodic gel
  Anodic pH after 5 h electrotransport: 5.2
[4]; anodic gel, prior to application, listed as His-Glu 100 mM
  Initial pH: 5.1
[4]; anodic gel, prior to application, listed as His-Glu 250 mM
  Initial pH: 5.2
[4]; cathodic gel
  Cathodic pH after 5 h electrotransport: 5.0
[4]; [6]
  Initial pH: 5.3
[4]; electrotransport experiments in animals, at their pI, for several hours
  pH control of electrotransport formulations: capable of assuring pH control
[4]
  pH control of a cathodic electrotransport formulation: capable of assuring pH control
[4]; for several hours
  pH control of an anodic electrotransport formulation: capable of assuring pH control
[4]; for up to 24 hours, at their pI
  pH control of anodic and cathodic electrotransport formulations: capable of assuring pH control
[5]; Anode, drug TMAB 50 mM
  Final pH: 5.3
  Initial pH: 5.1
[5]; Cathode, drug SMS 50 mM
  Final pH: 6.0
  Initial pH: 5.2
[5]; all experimental conditions tested (Table 7)
  pH control with TMAB or SMS: good pH control
[3]
  Conductivity at 10^−2 Molar: 40 μS/cm

## N[C@@H](Cc1cnc[nH]1)C(=O)NCC(=O)O [His-Gly] (H-His-Gly-OH)
[1]
  pka A: 2.41
  % salt: 16%
[1]; Table 1
  pI: 6.90
[1]; Table 2
  pI: 6.90
[2]
  Solubility: 1000 mM (≈ 212 mg/mL)
[3]
  Conductivity at 10^−2 Molar: 40 μS/cm

## NCCCC[C@H](N)C(=O)N[C@@H](CC(=O)O)C(=O)O [Lys-Asp] (H-Lys-Asp-OH)
[1]; Table 1
  pI: 6.08
[1]; Table 2
  pI: 6.08
[1]
  % salt: 2%
[2]
  Solubility: 1000 mM (≈ 261 mg/mL)
[3]
  Conductivity at 10^−2 Molar: 6 μS/cm

## NCCCC[C@H](N)C(=O)N[C@@H](CCC(=O)O)C(=O)O [Lys-Glu] (H-Lys-Glu-OH)
[1]; Table 1
  pI: 6.06
[1]; Table 2
  pI: 6.06
[1]
  % salt: 3%
[2]
  Solubility: 500 mM (≈ 138 mg/mL)
[3]
  Conductivity at 10^−2 Molar: 8 μS/cm

## O=S(=O)(O)CCCN1CCOCC1 [MOPS, 3-[N-morpholino]propanesulphonic acid, reference compound]
[1]
  pI: 4
[1]; at pI
  buffering capacity at its pI: does not present any buffering capacity
  conductivity of solutions at its pI: non-conductive
[1]; pH 7
  net charge at pH 7: −0.5
[4]; Table 3, anodic buffer gel
  Ionic strength (approx.): ~0.01
[4]; Table 4, cathodic buffer gel
  Ionic strength (approx.): ~0.01
[4]; anodic gel
  Anodic pH after 5 h electrotransport: 4.1
[4]; anodic gel, prior to application
  Initial pH: 7.0
[4]; cathodic gel
  Cathodic pH after 5 h electrotransport: 5.4
[4]; [6]
  Initial pH: 7.0
[4]
  pH control of a cathodic electrotransport formulation: lack of stability
[4]; for several hours
  pH control of an anodic electrotransport formulation: lack of stability

## CC(C)[C@H](N)C(=O)N[C@@H](Cc1cnc[nH]1)C(=O)O [Val-His] (H-Val-His-OH)
[1]
  pka A: 3.09
  % salt: 34%
[1]; Table 1
  pI: 7.38
[1]; Table 2
  pI: 7.38
[2]
  Solubility: 200 mM (≈ 50.9 mg/mL)
[3]
  Conductivity at 10^−2 Molar: 94 μS/cm

## O=P(O)(O)O [phosphate, phosphoric acid, reference compound]
[4]; Table 3, anodic buffer gel, listed as Phosphate 10 mM
  Ionic strength (approx.): ~0.015
[4]; Table 3, anodic buffer gel, listed as Phosphate 33 mM
  Ionic strength (approx.): ~0.05
[4]; Table 3, anodic buffer gel, listed as Phosphate 100 mM
  Ionic strength (approx.): ~0.15
[4]; Table 4, cathodic buffer gel
  Ionic strength (approx.): ~0.015
[4]; anodic gel, listed as Phosphate 33 mM
  Anodic pH after 5 h electrotransport: 3.3
[4]; anodic gel, listed as Phosphate 100 mM
  Anodic pH after 5 h electrotransport: 6.5
[4]; anodic gel, prior to application, listed as Phosphate 10 mM
  Initial pH: 6.9
[4]; anodic gel, prior to application, listed as Phosphate 33 mM
  Initial pH: 6.9
[4]; anodic gel, prior to application, listed as Phosphate 100 mM
  Initial pH: 6.8
[4]; cathodic gel
  Cathodic pH after 5 h electrotransport: 4.2
[4]; [6]
  Initial pH: 6.9
[4]
  pH control of a cathodic electrotransport formulation: lack of stability
[4]; for several hours
  pH control of an anodic electrotransport formulation: lack of stability
